Laboratory results as given in US20160002204A1 (Board of Regents, The University of Texas System, priority 2014, published 2016).

Assays:
[1] = biological target: T1, GLS1 (purified recombinant human GAC) (Homo sapiens, UniProt O94925); test: GLS1 enzymatic activity assay (dual-coupled, Amplex UltraRed/resorufin); type: biochemical
T1 sequence (O94925 55-598 isoform O94925-3 limits assumed): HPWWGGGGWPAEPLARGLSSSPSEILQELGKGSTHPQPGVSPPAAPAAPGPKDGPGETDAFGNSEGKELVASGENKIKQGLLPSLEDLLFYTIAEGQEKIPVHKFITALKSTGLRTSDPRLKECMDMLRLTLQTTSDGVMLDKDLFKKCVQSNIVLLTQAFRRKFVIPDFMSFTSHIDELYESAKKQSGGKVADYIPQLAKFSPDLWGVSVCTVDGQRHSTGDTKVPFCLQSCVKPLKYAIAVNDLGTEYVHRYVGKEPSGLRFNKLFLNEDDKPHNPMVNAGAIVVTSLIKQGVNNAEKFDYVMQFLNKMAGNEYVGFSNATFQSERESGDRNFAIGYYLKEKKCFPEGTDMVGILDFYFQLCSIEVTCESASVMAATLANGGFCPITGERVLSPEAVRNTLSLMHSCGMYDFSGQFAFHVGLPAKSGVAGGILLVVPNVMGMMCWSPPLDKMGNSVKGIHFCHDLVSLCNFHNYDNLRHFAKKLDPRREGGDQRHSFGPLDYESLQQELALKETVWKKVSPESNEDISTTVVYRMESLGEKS
In short: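 Recombinant human GAC (2 nM) preincubated with 50 mM potassium phosphate, then inhibitor (10 min each, RT); 1 mM glutamine, pH 7.4 Hepes buffer, 1% DMSO. Glutamate coupled via glutamate oxidase/HRP to resorufin (Ex 530/Em 590), kinetic or 20-min endpoint; IC50 by four-parameter logistic fit.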

A549 cells = test: A549 proliferation (viability) assay, Cell Titer Fluor, 72 hours; type: cell-based; conditions: Homo sapiens
In short: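 Compound exposure lasted 72 h (final DMSO 0.5% v/v) on A549 cells plated at 1000 cells/well one day earlier. Cell Titer Fluor added, 30 min at 37 °C, fluorescence read; EC50 derived by four-parameter logistic curve fitting.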

Row | IC50 [1] | EC50 (A549 cells) | Structure (SMILES)
1 | < 100 nM | 500 to 5000 nM | O=C1CCC(CC(=O)Nc2ccn(CCCCn3cc(C(=O)NCc4cccc(OC(F)(F)F)c4)nn3)c(=O)c2)CC1 [Example 204, 1-(4-{2-oxo-4-[2-(4-oxocyclohexyl)acetamido]-1,2-dihydropyridin-1-yl}butyl)-N-{[3-(trifluoromethoxy)phenyl]methyl}-1H-1,2,3-triazole-4-carboxamide]
2 | 100 to 500 nM | 500 to 5000 nM | O=C(Nc1ccn(CCC(F)Cn2cc(C(=O)NCc3cc(C(F)(F)F)ccn3)nn2)c(=O)n1)OC1CCC1 (centres unmarked) [Example 410, cyclobutyl N-(1-{3-fluoro-4-[4-({[4-(trifluoromethyl)pyridin-2-yl]methyl}carbamoyl)-1H-1,2,3-triazol-1-yl]butyl}-2-oxo-1,2-dihydropyrimidin-4-yl)carbamate]
3 | < 100 nM | 100 to 500 nM | O=C(CC1CCC1)Nc1cnn(CCC(F)Cn2cc(C(=O)NCc3cc(C(F)(F)F)ccn3)nn2)c(=O)c1 (centres unmarked) [Example 401, 1-{4-[4-(2-cyclobutylacetamido)-6-oxo-1,6-dihydropyridazin-1-yl]-2-fluorobutyl}-N-{[4-(trifluoromethyl)pyridin-2-yl]methyl}-1H-1,2,3-triazole-4-carboxamide]
4 | 500 to 5000 nM | > 5000 nM | Nc1ccn(CCC(F)Cn2cc(C(=O)NCc3cc(OC(F)(F)F)ccc3F)nn2)c(=O)c1F (centres unmarked) [Example 430, 1-[4-(4-amino-3-fluoro-2-oxo-1,2-dihydropyridin-1-yl)-2-fluorobutyl]-N-{[2-fluoro-5-(trifluoromethoxy)phenyl]methyl}-1H-1,2,3-triazole-4-carboxamide]
5 | 100 to 500 nM | 500 to 5000 nM | Cc1ccc(CNC(=O)c2cn(CC(F)CCn3ccc(NC(=O)C(=O)N4CCCCC4)c(F)c3=O)nn2)cn1 (centres unmarked) [Example 412, 1-(2-fluoro-4-{3-fluoro-2-oxo-4-[2-oxo-2-(piperidin-1-yl)acetamido]-1,2-dihydropyridin-1-yl}butyl)-N-[(6-methylpyridin-3-yl)methyl]-1H-1,2,3-triazole-4-carboxamide]
6 | 100 to 500 nM | > 5000 nM | Cc1ccc(CNC(=O)c2cn(CC(F)CCn3ccc(NC(=O)Cc4ccccc4)cc3=O)nn2)cn1 (centres unmarked) [Example 150, 1-{2-fluoro-4-[2-oxo-4-(2-phenylacetamido)-1,2-dihydropyridin-1-yl]butyl}-N-[(6-methylpyridin-3-yl)methyl]-1H-1,2,3-triazole-4-carboxamide]
7 | 100 to 500 nM | 500 to 5000 nM | Cc1ccc(CNC(=O)c2cn(CCCCn3ccc(NC(=O)OC(C)(C)C)cc3=O)nn2)cn1 [Example 143, tert-butyl N-{1-[4-(4-{[(6-methylpyridin-3-yl)methyl]carbamoyl}-1H-1,2,3-triazol-1-yl)butyl]-2-oxo-1,2-dihydropyridin-4-yl}carbamate]
8 | < 100 nM | 100 to 500 nM | O=C(Nc1ccn(CCCCn2cc(C(=O)NCc3cccc(OC(F)(F)F)c3)nn2)c(=O)c1)OC1CCC(F)(F)CC1 [Example 174, 4,4-difluorocyclohexyl N-(2-oxo-1-{4-[4-({[3-(trifluoro-methoxy)phenyl]methyl}carbamoyl)-1H-1,2,3-triazol-1-yl]butyl}-1,2-dihydropyridin-4-yl)carbamate]
9 | < 100 nM | < 100 nM | O=C(Cc1cccc(OC(F)(F)F)c1)Nc1ccc(CCCCn2ccc(NC(=O)OC3CCCCC3)nc2=O)nn1 [Example 103, cyclohexyl N-{2-oxo-1-[4-(6-{2-[3-(trifluoromethoxy)phenyl]acetamido}pyridazin-3-yl)butyl]-1,2-dihydropyrimidin-4-yl}carbamate]
10 | 100 to 500 nM | > 5000 nM | O=C(CN1CCS(=O)(=O)CC1)Nc1ccn(CCC(F)Cn2cc(C(=O)NCc3cccc(OC(F)(F)F)c3)nn2)c(=O)c1 (centres unmarked) [Example 231, 1-(4-{4-[2-(1,1-dioxo-1$l^6,4-thiomorpholin-4-yl)acetamido]-2-oxo-1,2-dihydropyridin-1-yl}-2-fluorobutyl)-N-{[3-(trifluoromethoxy)phenyl]methyl}-1H-1,2,3-triazole-4-carboxamide]
11 | < 100 nM | < 100 nM | O=C(CC1CCCCC1)Nc1ccn(CCC(F)Cn2cc(C(=O)NCc3cc(C(F)(F)F)ccn3)nn2)c(=O)c1 (centres unmarked) [Example 178, 1-{4-[4-(2-cyclohexylacetamido)-2-oxo-1,2-dihydropyridin-1-yl]-2-fluorobutyl}-N-{[4-(trifluoromethyl)pyridin-2-yl]methyl}-1H-1,2,3-triazole-4-carboxamide]
12 | < 100 nM | 100 to 500 nM | O=C(CN1CCCC1)Nc1ccn(CCC(F)Cn2cc(C(=O)NCc3cccc(OC(F)(F)F)c3)nn2)c(=O)c1F (centres unmarked) [Example 293, 1-(2-fluoro-4-{3-fluoro-2-oxo-4-[2-(pyrrolidin-1-yl)acetamido]-1,2-dihydropyridin-1-yl}butyl)-N-{[3-(trifluoromethoxy)phenyl]methyl}-1H-1,2,3-triazole-4-carboxamide]
13 | < 100 nM | < 100 nM | CC(C)(C)OC(=O)N1CCC(CC(=O)Nc2ccn(CCCCn3cc(C(=O)NCc4cccc(OC(F)(F)F)c4)nn3)c(=O)c2)CC1 [Example 205, tert-butyl 4-{[(2-oxo-1-{4-[4-({[3-(trifluoromethoxy)phenyl]methyl}carbamoyl)-1H-1,2,3-triazol-1-yl]butyl}-1,2-dihydropyridin-4-yl)carbamoyl]methyl}piperidine-1-carboxylate]
14 | 100 to 500 nM | 500 to 5000 nM | O=C(Cc1cccc(OC(F)(F)F)c1)Nc1ccc(CCCCn2ccc(NC(=O)CCN3CCCC3)nc2=O)nn1 [Example 109, N-{2-oxo-1-[4-(6-{2-[3-(trifluoromethoxy)phenyl]acetamido}pyridazin-3-yl)butyl]-1,2-dihydropyrimidin-4-yl}-3-(pyrrolidin-1-yl)propanamide]
15 | < 100 nM | > 5000 nM | CS(=O)(=O)N1CCN(CC(=O)Nc2ccn(CCC(F)Cn3cc(C(=O)NCc4cccc(OC(F)(F)F)c4)nn3)c(=O)c2)CC1 (centres unmarked) [Example 279, 1-(2-fluoro-4-{4-[2-(4-methanesulfonylpiperazin-1-yl)acetamido]-2-oxo-1,2-dihydropyridin-1-yl}butyl)-N-{[3-(trifluoromethoxy)phenyl]methyl}-1H-1,2,3-triazole-4-carboxamide]
16 | < 100 nM | < 100 nM | Cc1ccc(CNC(=O)c2cn(CC(F)CCn3ccc(NC(=O)CC4CCCCC4)c(F)c3=O)nn2)cn1 (centres unmarked) [Example 266, 1-{4-[4-(2-cyclohexylacetamido)-3-fluoro-2-oxo-1,2-dihydropyridin-1-yl]-2-fluorobutyl}-N-[(6-methylpyridin-3-yl)methyl]-1H-1,2,3-triazole-4-carboxamide]
17 | < 100 nM | 100 to 500 nM | CC(C)COC(=O)Nc1ccn(CCCCn2cc(C(=O)NCc3cccc(OC(F)(F)F)c3)nn2)c(=O)c1 [Example 7, Isobutyl(2-oxo-1-(4-(4-((3-(trifluoromethoxy)benzyl)carbamoyl)-1H-1,2,3-triazol-1-yl)butyl)-1,2-dihydropyridin-4-yl)carbamate]
18 | < 100 nM | < 100 nM | O=C(Cc1ccccc1)Nc1ccn(CC(F)CCn2cc(C(=O)NCc3cccc(OC(F)(F)F)c3)nn2)c(=O)c1 (centres unmarked) [Example 144, 1-{3-fluoro-4-[2-oxo-4-(2-phenylacetamido)-1,2-dihydropyridin-1-yl]butyl}-N-{[3-(trifluoromethoxy)phenyl]methyl}-1H-1,2,3-triazole-4-carboxamide]
19 | < 100 nM | < 100 nM | O=C(Nc1ccn(CCC(F)Cn2cc(C(=O)NCc3cccc(OC(F)(F)F)c3)nn2)c(=O)n1)OCc1cccc(OC(F)(F)F)c1 (centres unmarked) [Example 491, 3-(trifluoromethoxy)benzyl(1-(3-fluoro-4-(4-((3-(trifluoromethoxy)benzyl)carbamoyl)-1H-1,2,3-triazol-1-yl)butyl)-2-oxo-1,2-dihydropyrimidin-4-yl)carbamate]
20 | < 100 nM | 100 to 500 nM | CC(C)(O)c1ccc(CNC(=O)c2cn(CC(F)CCn3ccc(NC(=O)CC4CCCCC4)c(F)c3=O)nn2)cn1 (centres unmarked) [Example 268, 1-{4-[4-(2-cyclohexylacetamido)-3-fluoro-2-oxo-1,2-dihydropyridin-1-yl]-2-fluorobutyl}-N-{[6-(2-hydroxypropan-2-yl)pyridin-3-yl]methyl}-1H-1,2,3-triazole-4-carboxamide]
21 | 500 to 5000 nM | > 5000 nM | CC(C)CNC(=O)c1cn(CCCCn2ccc(NC(=O)Cc3ccccc3)cc2=O)nn1 [Example 35, N-(2-methylpropyl)-1-{4-[2-oxo-4-(2-phenylacetamido)-1,2-dihydropyridin-1-yl]butyl}-1H-1,2,3-triazole-4-carboxamide]
22 | < 100 nM | < 100 nM | O=C(CC1CCC1)Nc1ccn(CCC(F)Cn2cc(C(=O)NCc3cccc(OC(F)(F)F)c3)nn2)c(=O)c1 (stereo not drawn) [Example 217, l-{4-[4-(2-cyclobutylacetamido)-2-oxo-1,2-dihydropyridin-1-yl]-2-fluorobutyl}-N-{[3-(trifluoromethoxy)phenyl]methyl}-1H-1,2,3-triazole-4-carboxamide]
